In ChEMBL document CHEMBL5154649, “Design, synthesis, and characterization of novel aminoalcohol quinolines with strong in vitro antimalarial activity” (Eur J Med Chem, 2022):

Tested on: not listed separately
Experiment: Cytotoxicity against human HFF cells assessed as reduction in cell viability incubated for 72 hrs by MTT assay
Assay type: toxicity, cell-based
Details: not given

Row | SMILES | IC50 at 72 h [nM]
1 | OC[C@@H](Cc1ccccc1)NC[C@H](O)c1cc(C(F)(F)F)nc2c(C(F)(F)F)cccc12 | 37400
2 | O[C@H](CNCCCC(F)(F)F)c1cc(C(F)(F)F)nc2c(C(F)(F)F)cccc12 | 35600
3 | O[C@@H](CNCCCC(F)(F)F)c1cc(C(F)(F)F)nc2c(C(F)(F)F)cccc12 | 14600

Tested on: Plasmodium falciparum
Experiment: Antiplasmodial activity against CQ-susceptible Plasmodium falciparum 3D7 infected in human erythrocytes assessed as inhibition of parasite growth measured after 72 hrs by HRP2-ELISA
Assay type: functional, organism-based
Details: 3D7, Erythrocyte

Row | SMILES | IC50 [nM]
4 | OC[C@@H](Cc1ccccc1)NC[C@H](O)c1cc(C(F)(F)F)nc2c(C(F)(F)F)cccc12 | 106
5 | O[C@H](CNCCCC(F)(F)F)c1cc(C(F)(F)F)nc2c(C(F)(F)F)cccc12 | 15.4
6 | C[C@H]1[C@@H](O)O[C@@H]2O[C@@]3(C)CC[C@H]4[C@H](C)CC[C@@H]1[C@@]24OO3 [ARTENIMOL] | 2.8
7 | O[C@@H](CNCCCC(F)(F)F)c1cc(C(F)(F)F)nc2c(C(F)(F)F)cccc12 | 227
8 | CCNCc1cc(Nc2ccnc3cc(Cl)ccc23)ccc1O [DESETHYL AMODIAQUINE] | 24.7
9 | C=C[C@H]1CN2CC[C@H]1C[C@H]2[C@H](O)c1ccnc2ccc(OC)cc12 [QUININE] | 74.2

Tested on: Plasmodium falciparum
Experiment: Antiplasmodial activity against CQ-resistant Plasmodium falciparum W2 assessed as inhibition of parasite growth measured after 48 hrs by SYBR Green 1 dye based fluorescence assay
Assay type: functional, organism-based
Details: W2, 48 h

Row | SMILES | IC50 [nM]
10 | O[C@@H](CN1CCN(CCN2CCN(C[C@H](O)c3cc(C(F)(F)F)nc4c(C(F)(F)F)cccc34)CC2)CC1)c1cc(C(F)(F)F)nc2c(C(F)(F)F)cccc12 | > 1000
11 | C[C@H](CO)NC[C@H](O)c1cc(C(F)(F)F)nc2c(C(F)(F)F)cccc12 | 10.1
12 | OC[C@@H](Cc1ccccc1)NC[C@H](O)c1cc(C(F)(F)F)nc2c(C(F)(F)F)cccc12 | 54.3
13 | NCCCCCCCCCCCCNC[C@H](O)c1cc(C(F)(F)F)nc2c(C(F)(F)F)cccc12 | 379
14 | NCCNC[C@@H](O)c1cc(C(F)(F)F)nc2c(C(F)(F)F)cccc12 | > 1000
15 | O[C@H](CNCCCC(F)(F)F)c1cc(C(F)(F)F)nc2c(C(F)(F)F)cccc12 | 8.55
16 | NCCCCCCCCCCCCNC[C@@H](O)c1cc(C(F)(F)F)nc2c(C(F)(F)F)cccc12 | 43.8
17 | O[C@@H](CNCCCC(F)(F)F)c1cc(C(F)(F)F)nc2c(C(F)(F)F)cccc12 | 61

Tested on: Plasmodium falciparum
Experiment: Selectivity index, ratio of IC50 for antiplasmodial activity against CQ-susceptible Plasmodium falciparum 3D7 to IC50 for antiplasmodial activity CQ-resistant Plasmodium falciparum W2 by HRP2-ELISA
Assay type: functional
Details: not given

Row | SMILES | Ratio IC50
18 | OC[C@@H](Cc1ccccc1)NC[C@H](O)c1cc(C(F)(F)F)nc2c(C(F)(F)F)cccc12 | 1.7
19 | O[C@H](CNCCCC(F)(F)F)c1cc(C(F)(F)F)nc2c(C(F)(F)F)cccc12 | 0.85
20 | C[C@H]1[C@@H](O)O[C@@H]2O[C@@]3(C)CC[C@H]4[C@H](C)CC[C@@H]1[C@@]24OO3 [ARTENIMOL] | 0.9
21 | O[C@@H](CNCCCC(F)(F)F)c1cc(C(F)(F)F)nc2c(C(F)(F)F)cccc12 | 1
22 | CCNCc1cc(Nc2ccnc3cc(Cl)ccc23)ccc1O [DESETHYL AMODIAQUINE] | 0.25
23 | C=C[C@H]1CN2CC[C@H]1C[C@H]2[C@H](O)c1ccnc2ccc(OC)cc12 [QUININE] | 0.2

Tested on: Plasmodium falciparum
Experiment: Selectivity index, ratio of IC50 for antiplasmodial activity against CQ-susceptible Plasmodium falciparum 3D7 to IC50 for antiplasmodial activity against CQ-resistant Plasmodium falciparum W2 by SYBR Green 1 dye based fluorescence assay
Assay type: functional
Details: not given

Row | SMILES | Ratio IC50
24 | C[C@H](CO)NC[C@H](O)c1cc(C(F)(F)F)nc2c(C(F)(F)F)cccc12 | 4.8
25 | OC[C@@H](Cc1ccccc1)NC[C@H](O)c1cc(C(F)(F)F)nc2c(C(F)(F)F)cccc12 | 0.7
26 | NCCCCCCCCCCCCNC[C@H](O)c1cc(C(F)(F)F)nc2c(C(F)(F)F)cccc12 | 0.5
27 | O[C@H](CNCCCC(F)(F)F)c1cc(C(F)(F)F)nc2c(C(F)(F)F)cccc12 | 1.3
28 | NCCCCCCCCCCCCNC[C@@H](O)c1cc(C(F)(F)F)nc2c(C(F)(F)F)cccc12 | 0.55
29 | O[C@@H](CNCCCC(F)(F)F)c1cc(C(F)(F)F)nc2c(C(F)(F)F)cccc12 | 0.9

Tested on: not listed separately
Experiment: Selectivity index, ratio of IC50 for cytotoxicity against human HepG2 cells to IC50 for antiplasmodial activity against Plasmodium falciparum 3D7 infected in human erythrocytes by HRP2-ELISA
Assay type: toxicity, cell-based
Details: read-out: Ratio IC50

Row | SMILES | selectivity ratio
30 | OC[C@@H](Cc1ccccc1)NC[C@H](O)c1cc(C(F)(F)F)nc2c(C(F)(F)F)cccc12 | 158
31 | O[C@H](CNCCCC(F)(F)F)c1cc(C(F)(F)F)nc2c(C(F)(F)F)cccc12 | 493
32 | O[C@@H](CNCCCC(F)(F)F)c1cc(C(F)(F)F)nc2c(C(F)(F)F)cccc12 | 130

Tested on: not listed separately
Experiment: Cytotoxicity against Chinese hamster CHO cells assessed as reduction in cell viability incubated for 24 hrs by MTT assay
Assay type: toxicity, cell-based, Cricetulus griseus
Details: not given

Row | SMILES | IC50 at 24 h [nM]
33 | OC[C@@H](Cc1ccccc1)NC[C@H](O)c1cc(C(F)(F)F)nc2c(C(F)(F)F)cccc12 | 26600
34 | O[C@H](CNCCCC(F)(F)F)c1cc(C(F)(F)F)nc2c(C(F)(F)F)cccc12 | 39500
35 | O[C@@H](CNCCCC(F)(F)F)c1cc(C(F)(F)F)nc2c(C(F)(F)F)cccc12 | 45400

Tested on: Plasmodium falciparum
Experiment: Antiplasmodial activity CQ-resistant Plasmodium falciparum W2 infected in human erythrocytes assessed as inhibition of parasite growth measured after 72 hrs by HRP2-ELISA
Assay type: functional, organism-based
Details: W2, Erythrocyte

Row | SMILES | IC50 [nM]
36 | OC[C@@H](Cc1ccccc1)NC[C@H](O)c1cc(C(F)(F)F)nc2c(C(F)(F)F)cccc12 | 63.8
37 | O[C@H](CNCCCC(F)(F)F)c1cc(C(F)(F)F)nc2c(C(F)(F)F)cccc12 | 18.2
38 | C[C@H]1[C@@H](O)O[C@@H]2O[C@@]3(C)CC[C@H]4[C@H](C)CC[C@@H]1[C@@]24OO3 [ARTENIMOL] | 3
39 | O[C@@H](CNCCCC(F)(F)F)c1cc(C(F)(F)F)nc2c(C(F)(F)F)cccc12 | 229
40 | CCNCc1cc(Nc2ccnc3cc(Cl)ccc23)ccc1O [DESETHYL AMODIAQUINE] | 100
41 | C=C[C@H]1CN2CC[C@H]1C[C@H]2[C@H](O)c1ccnc2ccc(OC)cc12 [QUININE] | 474

Tested on: not listed separately
Experiment: Cytotoxicity against human HepG2 cells assessed as reduction in cell viability incubated for 72 hrs by MTT assay
Assay type: toxicity, cell-based
Details: not given

Row | SMILES | IC50 at 72 h [nM]
42 | OC[C@@H](Cc1ccccc1)NC[C@H](O)c1cc(C(F)(F)F)nc2c(C(F)(F)F)cccc12 | 16800
43 | O[C@H](CNCCCC(F)(F)F)c1cc(C(F)(F)F)nc2c(C(F)(F)F)cccc12 | 7600
44 | O[C@@H](CNCCCC(F)(F)F)c1cc(C(F)(F)F)nc2c(C(F)(F)F)cccc12 | 29700

Tested on: not listed separately
Experiment: Selectivity index, ratio of IC50 for cytotoxicity against human THP-1 cells to IC50 for antiplasmodial activity against Plasmodium falciparum 3D7 infected in human erythrocytes by HRP2-ELISA
Assay type: toxicity, cell-based
Details: read-out: Ratio IC50

Row | SMILES | selectivity ratio
45 | OC[C@@H](Cc1ccccc1)NC[C@H](O)c1cc(C(F)(F)F)nc2c(C(F)(F)F)cccc12 | 73
46 | O[C@H](CNCCCC(F)(F)F)c1cc(C(F)(F)F)nc2c(C(F)(F)F)cccc12 | > 8120
47 | O[C@@H](CNCCCC(F)(F)F)c1cc(C(F)(F)F)nc2c(C(F)(F)F)cccc12 | 144

Tested on: not listed separately
Experiment: Cytotoxicity against human THP-1 cells assessed as reduction in cell viability incubated for 72 hrs by MTT assay
Assay type: toxicity, cell-based
Details: not given

Row | SMILES | IC50 at 72 h [nM]
48 | OC[C@@H](Cc1ccccc1)NC[C@H](O)c1cc(C(F)(F)F)nc2c(C(F)(F)F)cccc12 | 7800
49 | O[C@H](CNCCCC(F)(F)F)c1cc(C(F)(F)F)nc2c(C(F)(F)F)cccc12 | > 125000
50 | O[C@@H](CNCCCC(F)(F)F)c1cc(C(F)(F)F)nc2c(C(F)(F)F)cccc12 | 32800

Tested on: not listed separately
Experiment: Selectivity index, ratio of IC50 for cytotoxicity against chinese hamster CHO cells to IC50 for antiplasmodial activity against Plasmodium falciparum 3D7 infected in human erythrocytes by HRP2-ELISA
Assay type: toxicity, cell-based
Details: read-out: Ratio IC50

Row | SMILES | selectivity ratio
51 | OC[C@@H](Cc1ccccc1)NC[C@H](O)c1cc(C(F)(F)F)nc2c(C(F)(F)F)cccc12 | 250
52 | O[C@H](CNCCCC(F)(F)F)c1cc(C(F)(F)F)nc2c(C(F)(F)F)cccc12 | 2560
53 | O[C@@H](CNCCCC(F)(F)F)c1cc(C(F)(F)F)nc2c(C(F)(F)F)cccc12 | 199

Tested on: Plasmodium falciparum
Experiment: Antiplasmodial activity against CQ-susceptible Plasmodium falciparum 3D7 assessed as inhibition of parasite growth measured after 48 hrs by SYBR Green 1 dye based fluorescence assay
Assay type: functional, organism-based
Details: 3D7, 48 h

Row | SMILES | IC50 [nM]
54 | O[C@@H](CN1CCN(CCN2CCN(C[C@H](O)c3cc(C(F)(F)F)nc4c(C(F)(F)F)cccc34)CC2)CC1)c1cc(C(F)(F)F)nc2c(C(F)(F)F)cccc12 | 147
55 | C[C@H](CO)NC[C@H](O)c1cc(C(F)(F)F)nc2c(C(F)(F)F)cccc12 | 48.2
56 | OC[C@@H](Cc1ccccc1)NC[C@H](O)c1cc(C(F)(F)F)nc2c(C(F)(F)F)cccc12 | 36.2
57 | NCCCCCCCCCCCCNC[C@H](O)c1cc(C(F)(F)F)nc2c(C(F)(F)F)cccc12 | 176
58 | NCCNC[C@@H](O)c1cc(C(F)(F)F)nc2c(C(F)(F)F)cccc12 | > 1000
59 | O[C@H](CNCCCC(F)(F)F)c1cc(C(F)(F)F)nc2c(C(F)(F)F)cccc12 | 11.4
60 | NCCCCCCCCCCCCNC[C@@H](O)c1cc(C(F)(F)F)nc2c(C(F)(F)F)cccc12 | 23.9
61 | O[C@@H](CNCCCC(F)(F)F)c1cc(C(F)(F)F)nc2c(C(F)(F)F)cccc12 | 57.6

Tested on: not listed separately
Experiment: Selectivity index, ratio of IC50 for human HFF cells to IC50 for antiplasmodial activity against Plasmodium falciparum 3D7 infected in human erythrocytes by HRP2-ELISA
Assay type: toxicity, cell-based
Details: read-out: Ratio IC50

Row | SMILES | selectivity ratio
62 | OC[C@@H](Cc1ccccc1)NC[C@H](O)c1cc(C(F)(F)F)nc2c(C(F)(F)F)cccc12 | 351
63 | O[C@H](CNCCCC(F)(F)F)c1cc(C(F)(F)F)nc2c(C(F)(F)F)cccc12 | 2310
64 | O[C@@H](CNCCCC(F)(F)F)c1cc(C(F)(F)F)nc2c(C(F)(F)F)cccc12 | 64
